Data on nine compounds can be found in PMC201021 (Malaria Journal, 2003).

SMILES strings stand for the structures. “Also recorded” adds a separate entry of the source.

The test system of assay [1] is haematin dimerization to β-haematin. Nature of the assay: β-Haematin Inhibitory Activity. The class given is biochemical. The following applies: 10 fold molar excess of drug.
The test system is the same in assay [2]. The note with it: cited from earlier work.

With `C=C[C@H]1C[N@@]2CC[C@H]1C[C@@H]2[C@@H](O)c1ccnc2ccccc12` [C, cinchonine], the “inhibition of the BHIA haematin dimerization reaction (in words)” value (from here on “inhibition … (in words)”) in assay [1] was “activity; also recorded: inhibited”.
Same read-out and setting: as for `C=C[C@H]1CN2CC[C@H]1C[C@H]2[C@H](O)c1ccnc2ccccc12` [CD, cinchonidine], the entry is “activity; also recorded: inhibited”; as for `CCN(CC)CCCC(C)Nc1ccnc2cc(Cl)ccc12` (centres unmarked) [CQ, chloroquine], “inhibited”.
On the same count and under the same terms, as for `CC[C@H]1CN2CC[C@H]1C[C@H]2[C@H](O)c1ccnc2ccc(OC)cc12` [HQ, hydroquinine], the entry is “activity; also recorded: inhibited”; as for `CC[C@H]1CN2CC[C@H]1C[C@@H]2[C@@H](O)c1ccnc2ccc(OC)cc12` [HQD, hydroquinidine], “activity; also recorded: inhibited”.
With `CC(CN1c2ccccc2Sc2ccccc21)N(C)C` (centres unmarked) [PMZ, promethazine], the “inhibition … (in words)” value in assay [1] was “Significant inhibition was not seen”; in assay [1] (listed as PM), “no significant interaction”.
For the compound `C=C[C@H]1CN2CC[C@H]1C[C@@H]2C(O)c1ccnc2ccc(OC)cc12` (some centres unmarked) [Q, 6'-methoxy cinchonan-9-ol], the “inhibition of spontaneous haematin dimerization to β-haematin in vitro” value in assay [2] is “inhibits”. Besides, the “inhibition … (in words)” value in assay [1] is on record as “activity; also recorded: inhibited”.
Turning to `C=C[C@H]1C[N@@]2CC[C@H]1C[C@@H]2[C@@H](O)c1ccnc2ccc(OC)cc12` [QD, quinidine], in assay [1], the “inhibition … (in words)” value is given as “activity; also recorded: inhibited”.
The same measure, in the same setting: as for `COc1ccc(CCN(C)CCCC(C#N)(c2ccc(OC)c(OC)c2)C(C)C)cc1OC` (centres unmarked) [VE, Verapamil], the entry is “Significant inhibition was not seen; also recorded: no significant interaction”.
